Experimental data: the NIST ThermoML archive (doi:10.1021/je100353j)

Experiment: xn = mol fraction of the nth substance listed
Details: Liquid

COC(=O)OC [dimethyl carbonate] + C1CCCCC1
mass density [kg/m3]
Details	x1 = 0.1	x1 = 0.2	x1 = 0.3	x1 = 0.4	x1 = 0.5	x1 = 0.6	x1 = 0.7	x1 = 0.8	x1 = 0.9	x1 = 1
303.15 K, 20000 kPa	804.5	825.3	849.5	873.8	901.2	930.3	964.1	997.1	1035	1074.7
303.15 K, 30000 kPa	812.1	833.4	857.9	882.3	909.9	939.1	972.8	1005.8	1043.6	1082.9
303.15 K, 40000 kPa	819	840.7	865.4	890.1	917.8	947.2	980.9	1013.8	1051.4	1090.4
308.15 K, 100 kPa	781.2	801.4	824.4	847.9	874.8	903.4	936.9	969.7	1008.6	1049.8
308.15 K, 5000 kPa	786.1	806.5	829.7	853.4	880.3	908.9	942.3	975.1	1013.7	1054.6
308.15 K, 10000 kPa	790.8	811.4	834.8	858.6	885.6	914.2	947.7	980.4	1018.8	1059.4
308.15 K, 20000 kPa	799.5	820.5	844.2	868.3	895.5	924.2	957.6	990.2	1028.4	1068.5
308.15 K, 30000 kPa	807.4	828.7	852.8	877.1	904.4	933.3	966.7	999.3	1037.3	1077
308.15 K, 40000 kPa	814.6	836.3	860.6	885.2	912.7	941.7	975	1007.6	1045.4	1084.8
313.15 K, 100 kPa	775.6	795.8	818.5	841.9	868.6	896.7	929.7	962.3	1001.1	1043
313.15 K, 5000 kPa	780.8	801.3	824.1	847.7	874.4	902.6	935.5	968	1006.6	1048.1
313.15 K, 10000 kPa	785.6	806.2	829.3	853	879.8	908.1	941	973.5	1011.9	1053
313.15 K, 20000 kPa	794.8	815.8	839.2	863.2	890.2	918.5	951.4	983.8	1021.8	1062.3
313.15 K, 30000 kPa	802.9	824.2	848	872.2	899.4	927.9	960.8	993.1	1030.9	1071
313.15 K, 40000 kPa	810.5	832.1	856.2	880.7	908	936.7	969.5	1001.9	1039.4	1079
